Assays:
[1] = biological target: CaMKII kinase domain (Homo sapiens, UniProt Q9UQM7); assay: Coupled kinase assay with Syntide-2 as substrate; type: biochemical; conditions: saturating GluN2B S1303D or high levels of CaMKIIN
[2] = biological target: CaMKII kinase domain (D135N) (Homo sapiens, UniProt Q9UQM7, D135N); assay: ITC binding to D135N CaMKII kinase domain; conditions: protein/peptide concentrations high enough to characterize a Kd of several hundred micromolar
[3] = biological target: CaMKII kinase domain (Homo sapiens, UniProt Q9UQM7, D135N); assay: Fluorescence polarization competition assay against GluN2B; type: binding; conditions: FP competition, up to low millimolar concentrations
Chain of CaMKII kinase domain (Homo sapiens, UniProt Q9UQM7, D135N) (Q9UQM7 7-274 D135N): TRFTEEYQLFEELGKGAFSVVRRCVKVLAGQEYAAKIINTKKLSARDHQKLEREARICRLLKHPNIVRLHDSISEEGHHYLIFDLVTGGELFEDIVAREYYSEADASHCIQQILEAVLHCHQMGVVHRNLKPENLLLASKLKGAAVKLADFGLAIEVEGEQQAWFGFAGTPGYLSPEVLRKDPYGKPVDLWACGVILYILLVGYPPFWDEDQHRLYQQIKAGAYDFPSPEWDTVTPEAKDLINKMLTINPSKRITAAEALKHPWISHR

Chain of CaMKII kinase domain (Homo sapiens, UniProt Q9UQM7) (Q9UQM7 7-274): as the sequence (Q9UQM7 7-274 D135N) above, with N129D counted along it
Chain of CaMKII kinase domain (D135N) (Q9UQM7 7-274 D135N): as the sequence (Q9UQM7 7-274 D135N) above

effect on Syntide-2 phosphorylation [1] | Sequence | binding in ITC [2] | competition with GluN2B peptide [3]
completely inhibit | MSEILPYGEDKMGRFGADPEGSDLSFSCRLQDTNSFFAGNQAKRPPKLGQIGRAKRVVIEDDRIDDVLKGMGEKPPSGV [CaMKIIN] | – | –
– | PLARTLSVAGLPGKK [Syntide-2] | did not see any appreciable binding | could not be competed off

— publication PMC9336311 (Cell reports, 2022)
